Test results from patent US20160184404A1, “NOVEL HEMOGLOBIN-DERIVED PEPTIDE BASED PHARMACEUTICAL COMPOSITIONS” (CLINIQUE LA PRAIRIE, priority 2014, published 2016).

How the values were obtained:
[1] = system: Human MNC; experiment: Stimulation of human MNC with MPLA in the presence of Hb-derived peptides, cytokine ELISA of supernatant; type: cell-based; conditions: for synergistic activity with MPLA, IL-6 release / synergistic activity in enhancing the MPLA-induced cytokine (IL-8) release, screen of native Hbγ1-peptide library: 20 h; for synergistic activity in enhancing the MPLA-induced cytokine (IL-8) release, screen of native Hbγ1-peptide library: MPLA 10 μg/ml, peptide 10 μM, FIG. 4
Experimental: Human mononuclear cells (MNC) were isolated from peripheral blood of healthy donors by density-gradient centrifugation on Ficoll gradient media (PAA Laboratories GmbH, Pasching, Austria). The cells were suspended and cultured in RPMI-1640 medium, containing […]. 50 μl of a peptide solution were incubated with 50 μl of a MPLA solution in a U-form 96 well micro cell culture plate #3799 (Corning Costar GmbH, Bodenheim, Germany) for 15 min at 37° C. After this incubation period 20 μl of heat-inactivated (56° C./30 min) human serum or RPMI-1640 medium were added. Finally, 80 μl of a MNC cell suspension was added to give a final concentration of 1 to 2×10^6 cells for culture in the absence of human serum or 1×10^6 cells for culture in the presence of serum. After a culture time of 20 h the cells were spun down and the culture supernatants were harvested. The cytokine concentrations in the supernatants were determined by matched antibody pairs for ELISA obtained from Invitrogen GmbH, Darmstadt (Germany). Mostly, each value represents the mean±SD of duplicate culture. In FIG. 3 the mean of three independent experiments is given, each of these three independent experiments having duplicate cultures.

[2] = system: Purified human monocytes; experiment: Stimulation of purified human monocytes with MPLA in the presence of Hbγ1-peptides, IL-6 ELISA; type: cell-based; conditions: MPLA 1 μg/ml; peptide 1, 3, 10 μM; FIG. 9
Experimental: FIG. 9: Synergistic effect of Hbg-23 and Hbg-32 peptide on stimulation of human monocytes with MPLA. Purified human monocytes (>95%) were stimulated with MPLA (1 μg/ml) in the presence or absence of the Hbγ1-peptides Hbg-23 and Hbg-32-107 (1, 3 and 10 μM). Control cultures were kept without MPLA. After a culture period of 20 h, the IL-6 concentration in the supernatant was determined by ELISA. Each value represents the mean±SD of duplicate cultures.
Human mononuclear cells (MNC) were isolated from peripheral blood of healthy donors by density-gradient centrifugation on Ficoll gradient media (PAA Laboratories GmbH, Pasching, Austria). The cells were suspended and cultured in RPMI-1640 medium, containing […]. 50 μl of a peptide solution were incubated with 50 μl of a MPLA solution in a U-form 96 well micro cell culture plate #3799 (Corning Costar GmbH, Bodenheim, Germany) for 15 min at 37° C. After this incubation period 20 μl of heat-inactivated (56° C./30 min) human serum or RPMI-1640 medium were added. […] The cytokine concentrations in the supernatants were determined by matched antibody pairs for ELISA obtained from Invitrogen GmbH, Darmstadt (Germany). […]

[3] = Freeze-fracture transmission electron microscopy of MPLA; type: physicochemical; conditions: MPLA 1 mM alone or with equimolar peptide; FIG. 25
Experimental: A small amount of the samples was sandwiched between two copper profiles and frozen by plunging the sandwiches immediately into liquefied ethane-propane-mixture cooled in liquid nitrogen. Fracturing and replication were performed at −150° C. in a BAF 400T freeze-fracture device (BAL-TEC, Balzers, Liechtenstein) equipped with electron guns and a film sheet thickness monitor. For replication Pt(C) was evaporated under an angle of 35° and (C) under 90°. The replicas were placed on copper grids and cleaned with a chloroform-methanol mixture.

[4] = Small angle X-ray scattering (SAXS) of MPLA aggregates; type: physicochemical
Experimental: SAXS measurements were performed at the European Molecular Biology Laboratory (EMBL) outstation at the Hamburg synchrotron radiation facility HASYLAB using the camera X33. Diffraction patterns in the range of the scattering vector 0.1<s<1.0 nm^−1 (s=2 sin θ/λ, 2θ scattering angle and A the wavelength=0.15 nm) were recorded at 40° C. with exposure times of 1 min using an image plate detector with online readout (MAR345, MarResearch, Norderstedt/Germany). The lipid concentration was in all cases 20 mM. The s-axis was calibrated with Ag-behenate, which has a periodicity of […]. The diffraction patterns were evaluated as described previously (Howe et al. (2008a)), assigning the spacing ratios of the main scattering maxima to defined three-dimensional structures. The lamellar and cubic structures are the most relevant here. The following features characterize the supramolecular structure: • (1) lamellar: The reflections are grouped in equidistant ratios, i.e., 1, ½, ⅓, ¼, etc. of the • lamellar repeat distance dλ; • (2) cubic: The different space groups of these non-lamellar three-dimensional structures differ in the ratio of their spacings. The relation between reciprocal spacing shkl=1/dhkl and lattice constant a is
shkl=[(h^2+k^2+l^2)/a]^1/2 • (hkl=Miller indices of the corresponding set of plane).

[5] = system: human memory T-cell; experiment: Stimulation of memory T-cells in human MNC with recall antigens PPD and TT, 3H-thymidine incorporation; type: cell-based; conditions: FIG. 20
Experimental: For stimulation of T-lymphocytes, human MNC were cultured in RPMI-1640 medium, containing […], and 10% of inactivated human serum at a concentration of 0.5 to 1.0×10^6 cells per ml in flat-bottom 96-well tissue culture plates. To investigate the adjuvant effect of MPLA and Hbg-peptides, the recall antigens tetanus toxoid (TT) and purified protein derivatives of M. tuberculosis (PPD) (both from Statens Serum Institute, Copenhagen, Danmark) were used. After 6 days of culture, cells were labeled with ^3H-Thymidine (3HTdR (2 Ci/mmol, 0.2 μCi/culture)) and after an additional day of culture the cells were harvested on glass-filter mats for measurement of incorporated radioactivity into the DNA. The results are expressed as mean±SD of duplicate cultures.
There is a close interaction between the innate immune system, as presented by e.g. monocytes and dendritic cells, and the adaptive immune system, as presented by T-lymphocytes and B-lymphocytes. Monocytes and dendritic cells present antigenic fragments to the cells of the adaptive immune system to initiate a specific immune reaction. In addition, they support the strength and polarization of the immune response by means of the release of cytokines. […]

[6] = Atomic force microscopy of MPLA dispersions; type: physicochemical; conditions: MPLA 25 μM on mica, alone or with equimolar peptide; after one hour
Experimental: Atomic force microscopy (AFM) allows a direct look onto the morphology of lipid aggregates on a molecular scale under almost physiological conditions. This allows obtaining depth profiles of MPLA dispersions down to a resolution limit of lower than 1 nm. For the analysis, MPLA dispersions were prepared at a concentration of 25 μM in physiological saline in the absence and presence of an equimolar content of Hbg-32.

[7] = MPLA 3 μg/ml, peptide 1, 3, 10 μM, FIG. 7, 10, 12, 15, 16, 29
[8] = MPLA 1 μg/ml, peptide 0.1-10 μM, FIG. 5, 19

CVLAHHFGKEFTPPVQAAYQKVVAGVANAL (Hbb-67)
synergistic activity with MPLA, IL-6 release [1, 7]: synergistically active in a similar range as Hbg-35-146m

Hbg-23: native overlapping 15 or 16 amino acid peptide of human Hbγ1, printed Hbγ11-125 (VTVLAIHFGKEFTPE; Hbg-23)
synergistic activity with MPLA, IL-6 release [1, 8]: strong synergistic activity | synergistic effect with MPLA in the absence and presence of human serum, IL-6 release ([1]; MPLA 3 μg/ml, peptide 1, 3, 10 μM, with or without 10% human serum, FIG. 8, 14): synergistic effects in the absence as well as in the presence of human serum | synergistic activity in enhancing the MPLA-induced cytokine (IL-8) release, screen of native Hbγ1-peptide library [1]: best hits | synergistic activity in enhancing the MPLA-induced cytokine (IL-8) release, screen of native Hbγ1-peptide library ([1]; listed as No. 23): profound synergistic activities | synergistic effect with MPLA during induction of IL-release, second batch of peptide ([1]; second batch, data not shown): no synergistic effect | synergism with MPLA in stimulating purified human monocytes, IL-6 release [2]: synergize with MPLA

Hbg-24: native overlapping 15 or 16 amino acid peptide of human Hbγ1, Hbγ116-130 (IHFGKEFTPEVQASW; Hbg-24)
synergistic activity with MPLA, IL-6 release [1, 8]: strong synergistic activity | synergistic activity in enhancing the MPLA-induced cytokine (IL-8) release, screen of native Hbγ1-peptide library [1]: best hits | synergistic activity in enhancing the MPLA-induced cytokine (IL-8) release, screen of native Hbγ1-peptide library ([1]; listed as No. 24): profound synergistic activities

Hbg-25: peptide of the native Hbγ1-peptide library that includes F122, E125 and V126 (EFTPEVQASWQKMVT; Hbg-25)
synergistic activity in enhancing the MPLA-induced cytokine (IL-8) release, screen of native Hbγ1-peptide library [1]: inactive

Hbg-51: Hbg-35 alanine-scan peptide with Phe122/Ala-replacement (TVLAIHFGKEATPEVQASWQKMVTAVASAL; Hbg-51)
effect of alanine replacement on the synergistic activity of Hbg-35 with MPLA, IL-6 release ([1]; alanine-scan, MPLA 3 μg/ml, peptide 3 μM, FIG. 18): enhanced the synergistic activity of Hbg-35

Monophosphoryl lipid A [MPLA]
morphology of MPLA aggregates (freeze-fracture electron microscopy) [3]: very densely and lamellar packed aggregates with large sizes in the micrometer range | aggregate structure of MPLA (SAXS) ([4]; MPLA alone or in the presence of peptide, 40° C., FIG. 22): largely multi-lamellar | sharp reflection (multi-lamellar periodicity), SAXS ([4]; MPLA alone, FIG. 22A): 4.11 nm | adjuvant activity on the stimulation of T-memory cells with recall antigens ([5]; PPD 1 μg/ml or TT 0.1 LF/ml, MPLA 10-1000 ng/ml): very effective adjuvant activity | MPLA concentration sufficient to exert a nearly optimal adjuvant effect ([5]; PPD or TT induced proliferation): ≤ 10 ng/mL | morphology of MPLA aggregates (AFM) [6]: densely packed multi-lamellar aggregates with some hundred nm extension in z-direction

TPEVQASWQKMVTAVA [Hbg-69]
synergistic activity with MPLA, IL-6 release [1, 8]: only a minute synergistic activity or no activity at all

VLAIHFGKEFTPEVQASW [Hbg-68, Hbγ1[113-130], common part structure of peptides Hbg-32 to Hbg-39]
synergistic activity with MPLA, IL-6 release [1, 8]: only a minute synergistic activity or no activity at all

VTLAAHLPAEFTPAVHASLDKFLASVSTVL (Hba-66)
synergistic activity with MPLA, IL-6 release [1, 7]: only a minimal synergistic activity
